Measured values taken from PubChem BioAssay (NCI).
Values joined by “and” are separate entries in the source; they are usually repeats but may differ in a detail not shown here. Identical values can stand only once.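 Following 48 hours of exposure in 96-well plates, responses at five concentrations were used to interpolate endpoints linearly. GI50 marks 50% less growth. TGI is the concentration that stops growth completely.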

Tested on: KM20L2 colon
Assay: NCI tumour cell line growth inhibition, 48 h

Structure (SMILES)	TGI [µM]
Cc1cc(Cl)ccc1NC(=O)C1C(=O)N(c2ccc(Cl)cc2C)C(=O)/C1=N\NC(N)=S (stereo not drawn)	46.8
COc1ccccc1C(=O)N(Cc1ccccc1)c1ccc(Cl)c(C(=O)OC(C)C)c1	> 100
COc1ccc(Br)c(C(=O)N2CCc3ccccc32)c1N	> 100
Cc1ccc2ccc(-c3ccccc3)c3c2c1C(=O)c1ccccc1C3=O	> 100
OCC(O)C(O)C(O)c1nn(-c2ccc(F)cc2)c2nc3cc(Cl)c(Cl)cc3nc12 (stereo not drawn)	> 100
NCCCN=c1ccc2c3c1c(O)c1c(O)ccc(=O)c1c3[nH]n2CCNCCO	38.4
COc1ccc(C2Cc3cc(OC)c(OC)c(OC)c3C2)cc1 (stereo not drawn)	> 100

Tested on: SF-295 CNS
Assay: NCI tumour cell line growth inhibition, 48 h

Structure (SMILES)	TGI	GI50 [µM]
CC1(C)OC(=O)C(=C2CCC(C(=O)Nc3cccc(C(F)(F)F)c3)N2)C(=O)O1 (stereo not drawn)	> 100 µM	–
CN(C)CCN1CCc2c([nH]c3ccccc23)C1c1cccnc1 (stereo not drawn)	> 100 µM	–
CCN(c1ccccc1)[C@H]1C(=O)N(c2ccc([N+](=O)[O-])cc2)[C@H]1c1ccc(OC)cc1	> 100 µM	–
COc1ccc(/C=C\c2cc(OC)c(OC)c(OC)c2)cc1	0.000719 µM	–
C[C@H]1CC[P+](C)(c2ccccc2)C1 (stereo partly drawn)	> 100 µM	–
COc1cc(OC)c2c(=O)c3cccc([N+](=O)[O-])c3n(C)c2c1	> 100 µM	–
COc1cccc(/C=N\NC(=O)C(C)SC(C)C(=O)N/N=C/c2cccc(OC)c2)c1 (stereo not drawn)	> 88.6 µM	–
Cc1cc(C)nc(NS(=O)(=O)c2ccc(Nc3c4ccccc4nc4c(C(=O)NCCN(C)C)cccc34)cc2)n1	14.9 µM	–
COc1cc2c(c(OC)c1OC)C(=O)NCCC2	> 100 µM	–
Cc1nc2ccccc2c(=O)n1/N=C(\N=Nc1cc(Cl)ccc1Cl)c1ccccc1	> 100 µM	–
O=C1CCC(=O)N1Sc1ccccc1	> 100 µM	–
O=c1[nH]cnc2n[nH]nc12	> 53.4 µM	–
O=C(/C=C/c1ccccc1O)c1ccccc1Cl	> 100 µM	–
CCCCC1(C(NC(=O)c2ccccc2Cl)c2ccncc2)C(=O)N(c2ccccc2)N(c2ccccc2)C1=O (stereo not drawn)	> 100 µM	–
COc1ccc(/C=N/NS(=O)(=O)c2ccccc2)cc1	> 100 µM	–
COc1ccccc1NC(=O)C1=C(C)NC(C)=C(C(=O)Nc2ccccc2OC)C1c1ccco1	> 44.2 µM	–
C1=CC2CCC1CN2CCC1CNc2ccccc21 (stereo not drawn)	> 100 µM	–
Cc1ccc(OC(=O)N2C/C(=C\c3ccccc3)C(=O)/C(=C/c3ccccc3)C2)cc1	47.6 µM	–
O=C1C(=O)C2(CC1S(=O)(=O)c1ccccc1)c1ccccc1-c1ccccc12 (stereo not drawn)	37.7 µM	–
O=c1oc2c3ccc4ccccc4c3n(CCN3CCCCC3)c2c2ccccc12	39.3 µM	–
Cc1ccc(S(=O)C(C)C(Cl)c2ccccc2)cc1 (stereo not drawn)	> 100 µM	–
Cc1cc(Cl)ccc1NC(=O)C1C(=O)N(c2ccc(Cl)cc2C)C(=O)/C1=N\NC(N)=S (stereo not drawn)	86.4 µM	–
COc1ccccc1C(=O)N(Cc1ccccc1)c1ccc(Cl)c(C(=O)OC(C)C)c1	> 100 µM	–
COc1ccc(Br)c(C(=O)N2CCc3ccccc32)c1N	> 100 µM	–
Cc1ccc2ccc(-c3ccccc3)c3c2c1C(=O)c1ccccc1C3=O	> 100 µM	–
OCC(O)C(O)C(O)c1nn(-c2ccc(F)cc2)c2nc3cc(Cl)c(Cl)cc3nc12 (stereo not drawn)	> 100 µM	–
NCCCN=c1ccc2c3c1c(O)c1c(O)ccc(=O)c1c3[nH]n2CCNCCO	7.44 µM and 39.9 µM	1.06
COc1ccc(C2Cc3cc(OC)c(OC)c(OC)c3C2)cc1 (stereo not drawn)	> 100 µM	–

Tested on: BT-549 breast
Assay: NCI tumour cell line growth inhibition, 48 h

Structure (SMILES)	TGI [µM]	GI50 [µM]
Cc1nc2ccccc2c(=O)n1/N=C(\N=Nc1cc(Cl)ccc1Cl)c1ccccc1	> 100	–
O=c1[nH]cnc2n[nH]nc12	> 100	2.65
COc1ccccc1NC(=O)C1=C(C)NC(C)=C(C(=O)Nc2ccccc2OC)C1c1ccco1	> 100	–
Cc1ccc(OC(=O)N2C/C(=C\c3ccccc3)C(=O)/C(=C/c3ccccc3)C2)cc1	88	–
COc1ccccc1C(=O)N(Cc1ccccc1)c1ccc(Cl)c(C(=O)OC(C)C)c1	> 100	–
NCCCN=c1ccc2c3c1c(O)c1c(O)ccc(=O)c1c3[nH]n2CCNCCO	5.31	–

Tested on: UO-31 renal
Assay: NCI tumour cell line growth inhibition, 48 h

Structure (SMILES)	TGI	GI50
CC1(C)OC(=O)C(=C2CCC(C(=O)Nc3cccc(C(F)(F)F)c3)N2)C(=O)O1 (stereo not drawn)	> 100 µM	–
CN(C)CCN1CCc2c([nH]c3ccccc23)C1c1cccnc1 (stereo not drawn)	> 100 µM	–
CCN(c1ccccc1)[C@H]1C(=O)N(c2ccc([N+](=O)[O-])cc2)[C@H]1c1ccc(OC)cc1	> 100 µM	–
COc1ccc(/C=C\c2cc(OC)c(OC)c(OC)c2)cc1	8.66 µM	–
C[C@H]1CC[P+](C)(c2ccccc2)C1 (stereo partly drawn)	> 100 µM	–
COc1cc(OC)c2c(=O)c3cccc([N+](=O)[O-])c3n(C)c2c1	> 100 µM	–
COc1cccc(/C=N\NC(=O)C(C)SC(C)C(=O)N/N=C/c2cccc(OC)c2)c1 (stereo not drawn)	> 85.5 µM	–
Cc1cc(C)nc(NS(=O)(=O)c2ccc(Nc3c4ccccc4nc4c(C(=O)NCCN(C)C)cccc34)cc2)n1	5.89 µM	–
COc1cc2c(c(OC)c1OC)C(=O)NCCC2	> 100 µM	–
Cc1nc2ccccc2c(=O)n1/N=C(\N=Nc1cc(Cl)ccc1Cl)c1ccccc1	> 31.6 µM	–
O=C1CCC(=O)N1Sc1ccccc1	> 100 µM	–
O=c1[nH]cnc2n[nH]nc12	> 100 µM	–
O=C(/C=C/c1ccccc1O)c1ccccc1Cl	> 100 µM	–
CCCCC1(C(NC(=O)c2ccccc2Cl)c2ccncc2)C(=O)N(c2ccccc2)N(c2ccccc2)C1=O (stereo not drawn)	> 100 µM	–
COc1ccc(/C=N/NS(=O)(=O)c2ccccc2)cc1	> 100 µM	–
COc1ccccc1NC(=O)C1=C(C)NC(C)=C(C(=O)Nc2ccccc2OC)C1c1ccco1	> 83.5 µM	–
C1=CC2CCC1CN2CCC1CNc2ccccc21 (stereo not drawn)	> 100 µM	–
Cc1ccc(OC(=O)N2C/C(=C\c3ccccc3)C(=O)/C(=C/c3ccccc3)C2)cc1	85 µM	–
O=C1C(=O)C2(CC1S(=O)(=O)c1ccccc1)c1ccccc1-c1ccccc12 (stereo not drawn)	47 µM	–
O=c1oc2c3ccc4ccccc4c3n(CCN3CCCCC3)c2c2ccccc12	> 100 µM	–
Cc1ccc(S(=O)C(C)C(Cl)c2ccccc2)cc1 (stereo not drawn)	> 100 µM	–
CN1CCc2ccccc2C(C(=O)c2ccc3c(c2)OCO3)C1=O (stereo not drawn)	> 100 µM	–
Cc1cc(Cl)ccc1NC(=O)C1C(=O)N(c2ccc(Cl)cc2C)C(=O)/C1=N\NC(N)=S (stereo not drawn)	41.1 µM	–
COc1ccccc1C(=O)N(Cc1ccccc1)c1ccc(Cl)c(C(=O)OC(C)C)c1	54.1 µM	–
COc1ccc(Br)c(C(=O)N2CCc3ccccc32)c1N	> 100 µM	–
Cc1ccc2ccc(-c3ccccc3)c3c2c1C(=O)c1ccccc1C3=O	> 100 µM	–
OCC(O)C(O)C(O)c1nn(-c2ccc(F)cc2)c2nc3cc(Cl)c(Cl)cc3nc12 (stereo not drawn)	> 100 µM	–
NCCCN=c1ccc2c3c1c(O)c1c(O)ccc(=O)c1c3[nH]n2CCNCCO	24.5 µM and 98.1 µM	3.78 µM and 14.2 µM
COc1ccc(C2Cc3cc(OC)c(OC)c(OC)c3C2)cc1 (stereo not drawn)	64.8 µM	–
